From PMC9289467, “A Novel Multifunctional 5,6-Dimethoxy-Indanone-Chalcone-Carbamate Hybrids Alleviates Cognitive Decline in Alzheimer’s Disease by Dual Inhibition of Acetylcholinesterase and Inflammation” (Frontiers in Aging Neuroscience, 2022)

How the values were obtained:
Type in all cases: in vivo
[1] = tested on: GFAP positive astrocytes; test: GFAP immunohistochemistry, Sholl analysis of astrocytes, APP/PS1 mice; conditions: AP5 40 mg/kg once daily 5 months
Protocol: (§1) APP/PS1 mice of ages 6 months were randomly divided into vehicle (APP/PS1, n = 10) and treatment groups (AP5, n = 10), which were intragastrically administered with AP5 (40 mg/kg) once daily for consecutive 5 months. AP5 was dissolved in distilled water containing 1% sodium carboxymethyl cellulose.
The fixed hemibrains were paraffin-embedded and sectioned in the coronal plane. The slices were deparaffinized with xylene and rehydrated by a series of gradient alcohols. Antigen retrieval through microwave boiling was performed with 10 mM sodium citrate solution at pH 6.0. The slices were cooled down to room temperature and then rinsed in PBS solution. Then the slices were incubated in 10% goat serum blocking solution for 1 h followed by primary antibodies overnight at 4°C. The next day, the slides were labeled with biotinylated or fluorescent secondary antibodies. Slices were washed three times with PBS before being mounted. Images were captured using a SpinSR10 scanner (Olympus, Tokyo, Japan). […]
After deparaffinization and antigen retrieval, the sections were incubated with 0.3% hydrogen peroxide (H2O2) to inhibit endogenous peroxidase activity for 20 min and blocked by goat serum for 30 min at37°C. Slides were subsequently incubated overnight with specific primary antibodies: anti-Iba1(1:100, ab178847, Abcam, Cambridge, UK) or anti-GFAP (1:100, bs-0199R, Bioss) at4 °C. […]

[2] = tested on: recognition memory; test: Spatial object location task; conditions: at 24 h, vs APP/PS1 mice without treatment
Protocol: as §1
To investigate whether AP5 treatment plays a key role in cognition improvement of APP/PS1 mice models, the five different behavioral tests were sequentially carried out in the following order: open field, novel object recognition task, spatial object-location task, Y-maze, and Morris water maze (MWM). AP5 was also administered daily during the test periods. […]
For the spatial object location task (an object moved to a new location), mice first explored the two objects placed in two corners of the open field for 5 min in training period. After 1 h or 24 h, the mice received a 5 min retention trial with a new spatial configuration with an object moved from one corner to the opposite corner of the open field.The discrimination index was calculated and defined as: (time spent exploring the displaced object-time spent exploring nondisplaced objects) / total exploration time for the two objects during the 5 min retention trial. […]
guided to platform and allowed to stay on it for 30 s. The time (escape latency) for each mouse to find the way and reach the target platform was analyzed. […]

[3] = tested on: C3 within astrocytes; test: C3 and GFAP co-immunostaining (A1 astrocyte marker); conditions: AP5-treated vs APP/PS1 mice
Protocol: as §1
The fixed hemibrains were paraffin-embedded and sectioned in the coronal plane. The slices were deparaffinized with xylene and rehydrated by a series of gradient alcohols. Antigen retrieval through microwave boiling was performed with 10 mM sodium citrate solution at pH 6.0. The slices were cooled down to room temperature and then rinsed in PBS solution. […]
(1:100, BAF2655, R&D, Minneapolis, MN, USA). […] For the quantification of Aβ plaque-associated microglia and astrocyte, Iba1- and GFAP-immunopositive cells around plaques were counted. On each slide, ten plaques were randomly determined and the microglia (nuclei) in the immediate vicinity (two times the plaque diameter) of each plaque were counted. For colocalization of PSD95 and synaptophysin, images were analyzed with the puncta analyzer plugin with a minimum pixel specification of 4 in Image Jand thresholding was consistent for every image. […]
anti-synaptophysin (1:1000, 67864-1-lg, Proteintech) overnight at 4°C. […] Densitometric analysis was performed using Quantity One software (Bio-Rad, Berkeley, CA, USA). […]

CCN(C)C(=O)Oc1cccc(/C=C2\Cc3cc(OC)c(OC)cc3C2=O)c1 [AP5, (E)-3-((5,6-dimethoxy-1-oxo-1,3-dihydro-2H-inden-2-ylidene)-methyl)phenylethyl(methyl)carbamate]
reactive phenotypes of astrocytes (ramification index, sum of intersects) [1]: attenuated
discrimination index, spatial object location [2]: significantly better
C3-positive area within the astrocytes [3]: markedly reduced
